Reference: the supplement of paper PMC11451515

Tested on: P12-Ichikawa
Test: cell viability relative to DMSO control; higher = less cytotoxic
Conditions: 48 h
Method in brief: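 Leukemia cells (NOMO1 or SEM, 500 cells/well; P12-Ichikawa, 1000 cells/well) were seeded in 5 μl in 1536-well plates after at least four passages of adaptation to each medium. They received library compounds in DMSO by pin dosing, 11 threefold points from 47 μM to 0.79 nM. Luminescence with CellTiter-Glo One was read after 48 h at 37°C. Viability is stated per plate relative to DMSO wells, with cell-free wells as background.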

[1] = HPLM + 10% dialyzed FBS, 0.000781 µM
[2] = HPLM + 10% dialyzed FBS, 0.00234 µM
[3] = HPLM + 10% dialyzed FBS, 0.00702 µM
[4] = HPLM + 10% dialyzed FBS, 0.0211 µM
[5] = HPLM + 10% dialyzed FBS, 0.0632 µM
[6] = HPLM + 10% dialyzed FBS, 0.19 µM
[7] = HPLM + 10% dialyzed FBS, 0.569 µM
[8] = HPLM + 10% dialyzed FBS, 1.71 µM
[9] = HPLM + 10% dialyzed FBS, 5.12 µM
[10] = HPLM + 10% dialyzed FBS, 15.4 µM
[11] = HPLM + 10% dialyzed FBS, 46.1 µM
[12] = RPMI 5 mM glucose + 10% FBS, 0.000781 µM
[13] = RPMI 5 mM glucose + 10% FBS, 0.00234 µM
[14] = RPMI 5 mM glucose + 10% FBS, 0.00702 µM
[15] = RPMI 5 mM glucose + 10% FBS, 0.0211 µM
[16] = RPMI 5 mM glucose + 10% FBS, 0.0632 µM
[17] = RPMI 5 mM glucose + 10% FBS, 0.19 µM
[18] = RPMI 5 mM glucose + 10% FBS, 0.569 µM
[19] = RPMI 5 mM glucose + 10% FBS, 1.71 µM
[20] = RPMI 5 mM glucose + 10% FBS, 5.12 µM
[21] = RPMI 5 mM glucose + 10% FBS, 15.4 µM
[22] = RPMI 5 mM glucose + 10% FBS, 46.1 µM
[23] = RPMI 5 mM glucose + 10% dialyzed FBS, 0.000781 µM
[24] = RPMI 5 mM glucose + 10% dialyzed FBS, 0.00234 µM
[25] = RPMI 5 mM glucose + 10% dialyzed FBS, 0.00702 µM
[26] = RPMI 5 mM glucose + 10% dialyzed FBS, 0.0211 µM
[27] = RPMI 5 mM glucose + 10% dialyzed FBS, 0.0632 µM
[28] = RPMI 5 mM glucose + 10% dialyzed FBS, 0.19 µM
[29] = RPMI 5 mM glucose + 10% dialyzed FBS, 0.569 µM
[30] = RPMI 5 mM glucose + 10% dialyzed FBS, 1.71 µM
[31] = RPMI 5 mM glucose + 10% dialyzed FBS, 5.12 µM
[32] = RPMI 5 mM glucose + 10% dialyzed FBS, 15.4 µM
[33] = RPMI 5 mM glucose + 10% dialyzed FBS, 46.1 µM

Row | Structure (SMILES) | cell viability [1] [%] | cell viability [2] [%] | cell viability [3] [%] | cell viability [4] [%] | cell viability [5] [%] | cell viability [6] [%] | cell viability [7] [%] | cell viability [8] [%] | cell viability [9] [%] | cell viability [10] [%] | cell viability [11] [%] | cell viability [12] [%] | cell viability [13] [%] | cell viability [14] [%] | cell viability [15] [%] | cell viability [16] [%] | cell viability [17] [%] | cell viability [18] [%] | cell viability [19] [%] | cell viability [20] [%] | cell viability [21] [%] | cell viability [22] [%] | cell viability [23] [%] | cell viability [24] [%] | cell viability [25] [%] | cell viability [26] [%] | cell viability [27] [%] | cell viability [28] [%] | cell viability [29] [%] | cell viability [30] [%] | cell viability [31] [%] | cell viability [32] [%] | cell viability [33] [%]
1 | COC1=CC2=NC=CC(=C2C=C1)OC3=CN=C(NC(=O)C/4=C(C)/N(CC(C)(C)O)N(C4=O)C5=CC=CC=C5)C=C3 | 87.7 | 92.6 | 87.6 | 91.3 | 97.1 | 96.4 | 95 | 91.6 | 76.9 | 85.7 | 74.4 | 89.4 | 87.9 | 89.7 | 92.1 | 92.1 | 91.9 | 89.5 | 90.5 | 70.1 | 90 | 63.6 | 81.1 | 88.7 | 89.8 | 98.5 | 96.6 | 93.2 | 94.9 | 91.4 | 78.8 | 81.9 | 61.2
2 | Cc1nc(NC(=O)N2CCC[C@H]2C(N)=O)sc1-c1ccnc(C(C)(C)C(F)(F)F)c1 | 96.4 | 100 | 97.1 | 93.3 | 97.7 | 92.4 | 89.8 | 87.6 | 72.2 | 62.9 | 83.2 | 89.4 | 89.2 | 95.4 | 93.7 | 90.6 | 86.9 | 79.6 | 76.2 | 57.5 | 48.3 | 77.8 | 97.9 | 92.4 | 94.4 | 91.8 | 93.4 | 81.5 | 86.7 | 78.9 | 63.7 | 51.6 | 83.3
3 | CN(C)CCOc1cc(-c2cn[nH]c2)ccc1NC(=O)C1COc2ccccc2O1 (stereo not given) | 105 | 112 | 103 | 107 | 114 | 117 | 110 | 104 | 98.7 | 95.3 | 95.3 | 107 | 113 | 115 | 112 | 117 | 118 | 128 | 113 | 107 | 88.8 | 84.1 | 105 | 122 | 123 | 116 | 122 | 125 | 128 | 118 | 109 | 95.8 | 97.2
4 | CN[S+](=O)([O-])Cc1ccc2[nH]cc(CCN(C)C)c2c1 | 110 | 122 | 112 | 118 | 123 | 126 | 123 | 123 | 116 | 120 | 126 | 115 | 123 | 125 | 116 | 128 | 119 | 131 | 136 | 125 | 130 | 131 | 106 | 113 | 113 | 122 | 119 | 121 | 128 | 131 | 121 | 127 | 121
5 | CN1[C@@H]2CC[C@H]1CC(OC(=O)c1c[nH]c3ccccc13)C2 (stereo not given in full) | 125 | 127 | 119 | 96.1 | 110 | 117 | 116 | 126 | 111 | 114 | 111 |  |  |  |  |  |  |  |  |  |  |  | 120 | 115 | 121 | 107 | 116 | 116 | 120 | 117 | 118 | 113 | 107
6 | OC(=O)C1=CC=C(NC2=NC3=C(C\N=C(/C4=CC(=CC=C34)Cl)C5=C(F)C=CC=C5F)C=N2)C=C1 | 93.9 | 101 | 97.8 | 105 | 104 | 89.4 | 77.6 | 48.5 | 27.1 | 18.6 | 18.3 | 95.8 | 99.1 | 106 | 107 | 110 | 93.9 | 74.4 | 48.9 | 27 | 24.7 | 25.1 | 98.1 | 95.1 | 96.2 | 91.4 | 101 | 95.4 | 75.7 | 52.3 | 36.6 | 32.6 | 30.7
7 | OC1=CC=C(C=C1)\C2=C\OC3=C(C=CC(=C3)O)C2=O | 112 | 107 | 105 | 97.2 | 110 | 104 | 102 | 99.2 | 92.7 | 102 | 98.1 | 98.3 | 90.4 | 103 | 99.1 | 100 | 87 | 90.9 | 89.5 | 92.9 | 86.9 | 89.7 | 100 | 96.3 | 95.4 | 99.9 | 97.3 | 96.7 | 95.8 | 98.1 | 93.1 | 90.3 | 88
8 | Cc1ccccc1N1C(=O)c2cc([S+](N)(=O)[O-])c(Cl)cc2NC1C (stereo not given) | 134 | 121 | 119 | 132 | 125 | 125 | 109 | 120 | 119 | 103 | 110 | 122 | 121 | 131 | 129 | 137 | 134 | 130 | 124 | 109 | 98.3 | 129 |  |  |  |  |  |  |  |  |  |  | 
9 | CCCCn1c(=O)n(Cc2ccccc2F)c(=O)c2nc(Cc3ccc(NC(C)=O)cc3)[nH]c21 | 93.4 | 95.6 | 94.6 | 90.1 | 88.6 | 88.8 | 89.4 | 79.6 | 85.5 | 83.3 | 92.8 | 87.9 | 87.8 | 89.9 | 85 | 94.5 | 88.3 | 82.7 | 75.5 | 82.5 | 79.2 | 89.1 | 88.2 | 82.1 | 87.2 | 91.3 | 90.5 | 78.6 | 86.3 | 90.7 | 85.9 | 79.7 | 83
10 | CN1[C@@H]2CC(OC(=O)[C@@H](CO)c3ccccc3)C[C@H]1[C@H]1O[C@H]12 (stereo not given in full) | 97 | 94.9 | 103 | 103 | 101 | 101 | 101 | 103 | 98.7 | 92.9 | 102 | 98.8 | 100 | 102 | 106 | 107 | 105 | 106 | 110 | 98.8 | 104 | 104 | 94.3 | 97.1 | 93.1 | 95.2 | 99.2 | 96.3 | 93.3 | 95 | 101 | 89.5 | 105
11 | COC1=C(N2CCNC(C)C2)C(=CC3=C1N(\C=C(C(O)=O)/C3=O)C4CC4)F (stereo not given) | 101 | 105 | 112 | 101 | 91.1 | 111 | 106 | 106 | 98.1 | 101 | 87.5 | 102 | 105 | 108 | 99.6 | 88.2 | 105 | 100 | 106 | 17.8 | 96.7 | 76.9 | 94.5 | 101 | 99.2 | 104 | 95.8 | 98.1 | 99.9 | 104 | 101 | 99.8 | 78.6
12 | [NH2][Pt]1([NH2])[O]CC(=O)[O]1 | 93.6 | 98.4 | 101 | 95.7 | 105 | 102 | 102 | 101 | 105 | 103 | 105 | 98.5 | 88.3 | 96.9 | 99.5 | 104 | 99.2 | 102 | 88.5 | 92.4 | 95.2 | 102 | 86.2 | 93 | 96.4 | 89.4 | 92.1 | 89.9 | 97.8 | 89.6 | 91.1 | 92.4 | 93.8
13 | FC(F)(F)c1ccc(/C=C/c2nc(COc3ccc(CCCCn4ccnn4)cc3)co2)cc1 | 119 | 124 | 110 | 97.3 | 88 | 86.9 | 83.4 | 85.6 | 40.4 | 35.6 | 81.6 |  |  |  |  |  |  |  |  |  |  |  |  |  |  |  |  |  |  |  |  |  | 
14 | CC(C)C(C)/C=C/C(C)C1CCC2C3=CC=C4CC(O)CCC4(C)C3CCC21C (stereo not given) | 110 | 105 | 97.8 | 109 | 99.5 | 96.6 | 111 | 94.4 | 106 | 97.8 | 97.3 | 99.1 | 99.4 | 98.3 | 106 | 96.7 | 98.4 | 102 | 97.6 | 93.5 | 94.5 | 92.2 | 91.1 | 94.8 | 102 | 97.1 | 103 | 96.7 | 97.5 | 96.8 | 92.8 | 91 | 89.4
15 | ClC1=C(N\C2=N\CCN2)C3=NSN=C3C=C1 | 106 | 117 | 122 | 130 | 119 | 117 | 119 | 115 | 120 | 127 | 124 |  |  |  |  |  |  |  |  |  |  |  | 107 | 115 | 114 | 127 | 124 | 116 | 129 | 115 | 124 | 120 | 127
